This note sets out measurements from EP1143981B1, “USE OF N-GLYCOLNEURAMINIC ACID AND ITS DERIVATIVES FOR THE MANUFACTURE OF A MEDICAMENT FOR THE TREATMENT OF HIV INFECTIONS” (Glukor, Inc., priority 1998, dated 2000).

Bounds are passed on as bounds.

Data set [1] deals with HIV-1IIIB. The data set is described as follows: CEM-SS cell-based anti-HIV assay (XTT). To be noted: 3.2µM to 1 mM; CEM-SS cells. (In general: Formazan colour is commonly taken as a measure of viable cells.)
In a further data set the test system is HIV-1 IIIB. In words: HIV-1 P24 output, test solutions added post infection. The class given is cell-based. To be noted: Human immunodeficiency virus 1, IIIB; endpoint of the inhibition; read-out: lowest effective concentration for inhibition of HIV p24 output. The method, then: In addition, a similar experiment was performed, except that test solutions were added post infection, at the time of plating into the triplicate wells.

Another data set is described as follows: in vitro. It is filed as cell-based. Particulars: human, cem-ss cells. The method, then: Cell Preparation: Prior to infection, CEM-SS cells were grown in complete tissue culture medium (RPMI 1640 medium with 10% heat-inactivated fetal bovine serum, 2mM L-glutamine, 100 U/mL penicillin, 100 µg/mL streptomycin, 10 µg/mL gentamycin) and transferred to T-150 flasks. On the day preceding the assay, the cells were split 1:2 to assure the cells would be in an exponential growth phase at time of infection. On the day of assay, the cells were washed twice with tissue culture medium and resuspended in fresh tissue culture medium. Total cell and viability counting were performed using a hemacytometer and trypan blue dye exclusion. Cell viability was greater than 95% for the cells to be utilized in the assay. […]
Tetrazolium dye staining of screening plates: After 6 days of incubation (37°C with 5% CO2), the test plates were analyzed by staining with the tetrazolium dye XTT (2,3-b (2-methoxy-4-nitro-5-sulfophenyl)-2H-tetrazolium -5-carboxanilide). XTT-tetrazolium is metabolized by mitochondrial enzymes of metabolically active cells to a soluble formazan product, allowing the rapid quantitative analysis of the inhibition of HIV-induced cell killing by anti-HIV compounds. […] Plates were sealed with adhesive plate sealers and inverted several times to mix the soluble formazan product and the plate was read spectrophotometrically at 450nm with a Molecular Devices Vmax plate reader. […]

In data set [2] the test system is HIV-1IIIB. The data set is described as follows: PBMC cell-based anti-HIV assay. Particulars: PBMCs; laboratory strain. As for the experimental part:
For the standard PBMC assay, PHA-P stimulated cells from at least two normal donors were pooled, diluted in fresh medium to a final concentration of 1 x 10^6 cells/mL, and plated in the interior wells of a 96 well round bottom microplate at 50 µL/well (5 x 10^4 cells/well). Test drug dilutions were prepared at a 2X concentration in microfuge tubes and 100 µL of each concentration was placed in appropriate wells in a standard format. A predetermined dilution of virus stock was placed in each test well (50 µL, final MOI ≅ 0.1). Wells with cells and virus alone were used for virus control. Separate plates were prepared identically without virus for drug cytotoxicity studies using an XTT assay system. The PBMC cultures were maintained for seven days following infection, at which time cell-free supernatant samples were collected and assayed for reverse transcriptase activity as described below.
Reverse Transcriptase Activity Assay: A microtiter based reverse transcriptase (RT) reaction was utilized as described by Buckheit et al., (1991), AIDS Research and Human Retroviruses, 7:295-302. Tritiated thymidine triphosphate (^3H-TTP) was suspended in distilled H2O at 5 Ci/mL. […] Opti-Fluor-O (Packard) was added to each sample and incorporated radioactivity was quantified utilizing a Wallac 1450 MicroBeta Plus liquid scintillation counter. […]

The CC50 is the concentration that lowers cell viability or growth by half. A high value points to lower toxicity to the cells. For the compound `O=C(CO)N[C@H]1[C@H]([C@H](O)[C@H](O)CO)OC(O)(C(=O)O)C[C@@H]1O` (stereo partly shown) [N-glycolylneuraminic acid], the figures for the anti-HIV activity result in the data set with HIV-1IIIB [1] and in the data set with HIV-1IIIB [2] were “did not display anti-HIV activity” and “inactive”, respectively. In addition, the minimal effective concentration in the data set on HIV-1 IIIB was found to be 0.003 µg/mL. The CC50 at 144 h in the data set “in vitro” was above 1000 µM.
